According to PMC8636635 (Communications Biology, 2021):

Experiments:
[1] = target: SARS-CoV-2 Protein E (Severe acute respiratory syndrome coronavirus 2, UniProt P0DTC4); assay: two-electrode voltage clamp, X. laevis oocytes; conditions: read-out: % block at 10 μM
[2] = target: SARS-CoV-1 Protein E (Severe acute respiratory syndrome-related coronavirus, UniProt P59637); assay type: cell-based
[3] = target: T1, ORF7b (Severe acute respiratory syndrome coronavirus 2, UniProt P0DTD8)
T1 construct: gene 7b
T1 sequence (P0DTD8 whole entry): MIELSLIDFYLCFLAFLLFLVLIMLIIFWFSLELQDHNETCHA

Sequence of SARS-CoV-2 Protein E (P0DTC4 whole entry): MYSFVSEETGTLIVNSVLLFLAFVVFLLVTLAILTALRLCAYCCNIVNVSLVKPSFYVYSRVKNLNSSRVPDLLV
Sequence of SARS-CoV-1 Protein E (P59637 whole entry, looked up): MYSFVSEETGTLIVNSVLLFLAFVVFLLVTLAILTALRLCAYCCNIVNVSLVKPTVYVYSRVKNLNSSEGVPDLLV

Row | SMILES | inhibition at 10 µM [1] | % block [2] | % reduction in current at 10 μM [3]
1 | NC12CC3CC(CC(C3)C1)C2 [amantadine] | 77% | – | –
2 | N=C(N)NC(=O)c1nc(Cl)c(N2CCCCCC2)nc1N [hexamethylene-amiloride] | 50% | HMA and emodin blocked the Protein E ion channels from both SARS-CoV-1 and -2 | –
3 | Cc1cc(O)c2c(c1)C(=O)c1cc(O)cc(O)c1C2=O [emodin] | 60% | HMA and emodin blocked the Protein E ion channels from both SARS-CoV-1 and -2 | 79%
4 | C1C2CC3CC1CC(C2)C3 [adamantane] | – | adamantane that also blocked Protein E from SARS-CoV-1, but not that of SARS-CoV-2 | –
5 | c1ccc2c(c1)Cc1ccccc1O2 [xanthene] | 80% | – | 47%
